Article PMC4765732 (Journal of medicinal chemistry, 2015)

Experiments:
HIV-1LAI = experiment: Antiviral assay in MT-2 human T-lymphocytes exposed to HIV-1LAI; assay type: cell-based
HIV-1DRV^RP51 = assay type: cell-based; settings: against HIV-1DRV^RP51

COc1ccc(S(=O)(=O)N(CC(C)C)C[C@@H](O)[C@H](Cc2ccccc2)NC(=O)O[C@H]2CO[C@H]3OC[C@H](N(C)C(=O)OC(C)(C)C)[C@H]32)cc1 [Inhibitor 25e, (3R,3aS,4R,6aR)-4-((2S,3R)-3-Hydroxy-4-(N-isobutyl-4-methoxyphenylsulfonamido)-1-phenylbutan-2-ylcarbamoyloxy)hexahydrofuro[2,3-b]furan-3-yl methyl t-butyl carbamate]
loss in antiviral activity (HIV-1LAI; versus Boc-derivative 25c): ~10 fold

CCN[C@H]1CO[C@@H]2OC[C@H](OC(=O)N[C@@H](Cc3ccccc3)[C@H](O)CN(CC(C)C)S(=O)(=O)c3ccc(OC)cc3)[C@@H]21 [Inhibitor 25i]
improvement in EC50 values over darunavir (HIV-1DRV^RP51): 10 fold

COc1ccc(S(=O)(=O)N(CC(C)C)C[C@@H](O)[C@H](Cc2ccccc2)NC(=O)O[C@H]2CO[C@H]3OC[C@H](NC(C)C)[C@H]32)cc1 [Inhibitor 25j, (3R,3aS,4R,6aR)-4-(Isopropylamino)hexahydrofuro[2,3-b]furan-3-yl ((2S,3R)-3-hydroxy-4-((N-isobutyl-4-methoxyphenyl)sulfonamido)-1-phenylbutan-2-yl)carbamate]
improvement in EC50 values over darunavir (HIV-1DRV^RP51): 10 fold
improvement in antiviral activity over the methyl and ethyl derivatives (HIV-1LAI; antiviral IC50 versus 25f and 25i): over 60 fold
